Measured values: article PMC9663970, “New triazole-substituted triterpene derivatives exhibiting anti-RSV activity: synthesis, biological evaluation, and molecular modeling” (Beilstein Journal of Organic Chemistry, 2022)
Where two headings read alike, the source gives them in different places.

How the values were obtained:
RSV = test: Anti-RSV activity in RSV-infected A549 cells (MTT and SRB); format: cell-based, RSV A strain (line A2); settings: for Therapeutic index (TI) = IC50(A549)/EC50(A549 + RSV): IC50 in A549; for Therapeutic index (TI) = IC50(B16F10)/EC50(A549 + RSV): IC50 in B16F10; for Therapeutic index (TI) = IC50(HEP2)/EC50(A549 + RSV): IC50 in HEP2; for Therapeutic index (TI) = IC50(VERO)/EC50(A549 + RSV): IC50 in VERO
HEP2 cells = test: cells; format: cell-based; settings: for IC50: Homo sapiens, read-out: IC50 ± SD, concentration toxic to 50% of non-infected HEP2 cells
B16F10 cells = test: cells; format: cell-based; settings: for IC50: Mus musculus, read-out: IC50 ± SD, concentration toxic to 50% of non-infected B16F10 cells
A549 cells = test: cells; format: cell-based; settings: for IC50: Homo sapiens, read-out: IC50 ± SD, concentration toxic to 50% of non-infected A549 cells
HIV protease = test system: HIV protease; set-up: method as in PMID 10071849; settings: read-out: IC50 HIV protease inhibition; cited from earlier work
VERO cells = test: cells; format: cell-based; settings: for IC50: Chlorocebus sabaeus, 96 h, read-out: IC50 ± SD, concentration toxic to 50% of non-infected VERO cells
SARS-CoV [1] = settings: cited from earlier work
RSV protein F gene = format: cell-based; settings: 12.5 µM, RSV-infected A549 cells, 96 h, compared to control
SARS-CoV [2] = settings: in vitro in Vero cells; read-out: IC50 against SARS-CoV; cited from earlier work
[3] = human respiratory syncytial virus, A549, A549+RSV, treated 4 hours after viral infection, 96 h, read-out: EC50 ± SD, concentration that inhibits RSV replication by 50%
[4] = human respiratory syncytial virus, A549, read-out: EC50 ± SD, concentration that inhibits RSV replication by 50%, A549+RSV, treated 4 hours after viral infection, 96 h
[5] = HEp-2, MTT test, 96 h, non-infected HEP2 cells
[6] = B16-F10, MTT test, 96 h, non-infected B16F10 cells
[7] = MTT test, 96 h, non-infected A549 cells
[8] = MTT test, non-infected VERO cells

SMILES	EC50 (RSV; [3]) [µM]	IC50 (HEP2 cells; HEp-2, 96 h) [µM]	IC50 (B16F10 cells; B16-F10, 96 h) [µM]	IC50 (A549 cells; A549, 96 h) [µM]	Therapeutic index (TI) = IC50(A549)/EC50(A549 + RSV) (RSV)	Therapeutic index (TI) = IC50(B16F10)/EC50(A549 + RSV) (RSV)	Therapeutic index (TI) = IC50(HEP2)/EC50(A549 + RSV) (RSV)	Therapeutic index (TI) = IC50(VERO)/EC50(A549 + RSV) (RSV)	EC50 (RSV; [4]) [µM]	IC50 (VERO cells; Vero) [µM]	also measured
NC(=O)c1ncn([C@@H]2O[C@H](CO)[C@@H](O)[C@H]2O)n1 [RBV, ribavirin, reference compound]	4.9 ± 1.4	–	–	–	–	–	–	–	–	–	–
C=C(C)[C@@H]1CC[C@]2(C(=O)O)CC[C@]3(C)[C@H](CC[C@@H]4[C@@]5(C)CC[C@H](O)C(C)(C)[C@@H]5CC[C@]43C)[C@@H]12 [compound 1, betulinic acid, reference compound]	–	28 ± 0.3	22.7 ± 0.8	17.8 ± 0.6	3.4	4.3	5.3	2.7	5.3 ± 0.7	14.2 ± 0.2	IC50 (HIV protease): 8 µM; SI anti-SARS-CoV activity (SARS-CoV [1]): > 10; EC50 (SARS-CoV [1]; read-out: EC50 anti-SARS-CoV activity): 10 µM
C[C@H]1[C@H](C)CC[C@]2(C(=O)O)CC[C@]3(C)C(=CC[C@@H]4[C@@]5(C)CC[C@H](O)C(C)(C)[C@@H]5CC[C@]43C)[C@H]12 [compound 2, ursolic acid, reference compound]	–	26.9 ± 0.4	16.2 ± 0.8	26.7 ± 0.9	1.5	0.9	1.6	0.8	17.3 ± 0.9	12.9 ± 0.8	IC50 (HIV protease): 9 µM
C=C(C)[C@@H]1CC[C@]2(C(=O)O)CC[C@]3(C)[C@H](CC[C@@H]4[C@@]5(C)CC[C@H](OC(C)=O)C(C)(C)[C@@H]5CC[C@]43C)[C@@H]12 [compound 3]	–	11.5 ± 1.5	10.2 ± 1.1	53 ± 0.9	1.2	0.2	0.3	0.3	44.4 ± 0.5	13.4 ± 2.1	–
CC(=O)OC1CCC2(C)C(CCC3(C)C2CC=C2C4C(C)C(C)CCC4(C(=O)O)CCC23C)C1(C)C (stereo not drawn) [compound 4]	–	–	–	–	9.3	0.9	1.2	0.9	14.3	–	IC50 (HEP2 cells; [5]): 17.2 ± 0.9 µM; IC50 (B16F10 cells; [6]): 12.4 ± 0.8 µM; IC50 (A549 cells; [7]): 133 ± 1.1 µM; EC50 (RSV; read-out: EC50 ± SD, concentration that inhibits RSV replication by 50%, A549+RSV, treated 4 hours after viral infection, 96 h): 14.3 ± 0.6 µM; IC50 (VERO cells; [8]): 12.6 ± 1.2 µM
C#CCOC(=O)[C@]12CC[C@@H](C(=C)C)[C@@H]1[C@H]1CC[C@@H]3[C@@]4(C)CC[C@H](OC(C)=O)C(C)(C)[C@@H]4CC[C@@]3(C)[C@]1(C)CC2 [compound 5]	0.6 ± 0.8	18.4 ± 0.6	25.6 ± 0.5	88.8 ± 1	148.0	42.7	30.7	24.2	–	14.5 ± 0.2	–
C#CCOC(=O)[C@]12CC[C@@H](C)[C@H](C)[C@H]1C1=CC[C@@H]3[C@@]4(C)CC[C@H](OC(C)=O)C(C)(C)[C@@H]4CC[C@@]3(C)[C@]1(C)CC2 [compound 6]	36.2 ± 0.9	–	–	–	1.9	0.8	0.6	0.7	–	–	IC50 (HEP2 cells; [5]): 20.3 ± 0.4 µM; IC50 (B16F10 cells; [6]): 29 ± 1.1 µM; IC50 (A549 cells; [7]): 67.2 ± 0.5 µM; IC50 (VERO cells; [8]): 26.1 ± 0.6 µM
C=C(C)[C@@H]1CC[C@]2(C(=O)OCc3cn(-c4cccc([N+](=O)[O-])c4)nn3)CC[C@]3(C)[C@H](CC[C@@H]4[C@@]5(C)CC[C@H](OC(C)=O)C(C)(C)[C@@H]5CC[C@]43C)[C@@H]12 [compound 7]	0.314	23.8 ± 2	18.8 ± 0.7	42.7 ± 0.6	142.3	62.7	79.3	63.0	–	18.9 ± 1.4	EC50 (RSV; A549+RSV, treated 4 hours after viral infection, 96 h, read-out: EC50 ± SD, concentration that inhibits RSV replication by 50%): 0.3 ± 0.1 µM
CC(=O)OC1CCC2(C)C(CCC3(C)C2CC=C2C4C(C)C(C)CCC4(C(=O)OCc4cn(-c5cccc([N+](=O)[O-])c5)nn4)CCC23C)C1(C)C (stereo not drawn) [compound 8]	–	19.9 ± 1.2	9.8 ± 0.6	59.2 ± 0.9	–	196.0	398.0	432.0	0.053	21.6 ± 0.9	Cytotoxicity (in words) (HEP2 cells; non-infected HEP2 cells): low cytotoxicity; Cytotoxicity (in words) (B16F10 cells; non-infected B16F10 cells): low cytotoxicity; Cytotoxicity (in words) (A549 cells; non-infected A549 cells): low cytotoxicity; Cytotoxicity (in words) (VERO cells; non-infected VERO cells): low cytotoxicity; Reduction of RSV protein F gene expression (RSV protein F gene): approximately 65%
CC1(C)[C@@H](O[C@H]2O[C@H](C(=O)O)[C@@H](O)[C@H](O)[C@H]2O[C@@H]2O[C@H](C(=O)O)[C@@H](O)[C@H](O)[C@H]2O)CC[C@]2(C)[C@H]3C(=O)C=C4[C@@H]5C[C@@](C)(C(=O)O)CC[C@]5(C)CC[C@@]4(C)[C@]3(C)CC[C@@H]12 [glycyrrhizic acid]	–	–	–	–	–	–	–	–	–	–	IC50 (SARS-CoV [2]): 365 µM
